Laboratory results: patent publication US10844013B2, “Phenyl amino piperidine mTORC inhibitors and uses thereof” (Navitor Pharmaceuticals, Inc., priority 2016, dated 2020)
Where a name gives a salt, the structure may show the parent alone. Read-outs that look alike come from different tables or passages of the source.

Tests used:
Type in all cases: cell-based
[1] = tested on: pS6K1 (p-p70 S6 Kinase (Thr389)) in MCF-7 cells; assay: AlphaLISA Ultra pS6K1 assay; settings: 2 hours compound incubation
Outline: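 MCF-7 cells seeded 20–24 h, medium refreshed 2 h, then treated 2 h with compound (0.5% DMSO final). Lysates probed for Thr389-phosphorylated p70 S6K by AlphaLISA Ultra, 2 h acceptor then 2 h donor bead incubation, read on a multimode reader.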

[2] = tested on: pAKT (p-Akt 1/2/3 (Ser473)) in MCF-7 cells; assay: AlphaLISA Ultra pAKT assay
Outline: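 MCF-7 cells seeded 20-24 h, medium refreshed for 2 h, then treated with compounds for 2 h at 0.5% final DMSO. Lysates frozen at −80 °C, then pAKT detected by AlphaLISA with acceptor and donor beads, 2 h each.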

[3] = tested on: MCF-7 cells; assay: Radioactive glucose uptake in MCF-7 cells; settings: Homo sapiens, MCF7, 3H-2DG uptake
Method: Example 157: Radioactive Glucose Uptake in MCF-7 Cells
Assay Protocol • 1. Seed approximately 12,000 MCF-7 cells cultured without insulin per well in 96-well plates (BIOCOAT, #356690) and let the cells sit in hood for 30 min. (Cell culture medium: DMEM+10% FBS). • 2. Put the cell culture plates in TC incubator (5% CO2, 37° C.) and incubate overnight. • 3. Take out the cell plates and wash with prewarmed KRH buffer (37° C.) three times using BioTek plate washer. (KRH buffer preparation: 136 mM NaCl, 4.7 mM KCl, 1.25 mM MgCl2, 1.2 mM CaCl2), 20 mM HEPES, 0.1 mg/ml sodium pyruvate, 0.1% BSA, pH 7.4). • 4. Compound preparation and treatment: • a) Add 12 ul compound stock in 100% DMSO to the first column of Echo LDV plate • b) Serially dilute the compound solution in 100% DMSO (4 uL+8 uL DMSO) using Bravo for 9 doses • c) Dispense 350 nL compounds using Echo to the working plate. • d) i) Without compound preincubation condition, dispense 116 uL KRH buffer containing tritiated 2-deoxy-D-glucose (3H-2DG) and 2-deoxy-D-glucose (2DG) to the working plate and mix. • ii. With compound preincubation condition, dispense 110 uL KRH buffer only to the working plates and mix • e) Keep the compound working plate at 37° C. incubator until use • 5. Discard the KRH buffer (cells were kept in KRH buffer for 10-15 min before 2-DG addition) and transfer 100 uL compound working solution out to the cell culture plate using Bravo. Incubate for 20 mins at 37° C. (2DG final at 0.2 mM, 3H-2DG at 10 uCi/mL). • 6. Add prewarmed 50 uL KRH buffer (37° C.) containing 60 mM cold 2DG to the wells to stop the 2DG uptake using Multidrop combi • 7. Wash the cells with prewarmed PBS three times using BioTek plate washer • 8. Add 50 uL lysis buffer (0.1 M NaOH) into the assay plate to lyse the cells using Bravo and shake at 800 rpm for 30 min. • 9. Mix and transfer 20 uL lysate to a new white plate (Corning, #3610) and add 200 uL MicroScint-20 using Bravo • 10. Shake the plate at 1000 rpm for 30 min and count in a MicroBeta plate reader.

[4] = Homo sapiens, MCF7, 2 hours compound incubation

Row | IC50 ([1]; Homo sapiens, MCF7, 2 h) | IC50 [2, 4] | IC50 [3] | IC50 ([1]; read-out: pS6K1 in MCF7: IC50) | IC50 ([2]; 2 hours compound incubation, read-out: pAKT in MCF7: IC50) | Structure (SMILES)
1 | 0.01 to 1 µM | > 10 µM | 0.01 to 1 µM | – | – | Cc1cc(C)c(C(=O)N2CCN(c3ccccn3)C(CO)C2)cc1NC1CCN(c2ccccc2C#N)CC1 (single isomer, unassigned) [I-48, 2-[4-({5-[(3R or 3S)-3-(hydroxymethyl)-4-(pyridin-2-yl)piperazine-1-carbonyl]-2,4-dimethylphenyl}amino)piperidin-1-yl]benzonitrile]
2 | – | > 10 µM | 0.01 to 1 µM | 0.01 to 1 µM | – | Cc1cc(C)c(C(=O)N2CCN(c3ccccc3S(C)(=N)=O)CC2)cc1NC1CCN(c2ccccc2C#N)CC1 (single isomer, unassigned) [I-49, 2-(4-{[5-(4-{2-[(S or R)-imino(methyl)oxo-λ^6-sulfanyl]phenyl}piperazine-1-carbonyl)-2,4-dimethylphenyl]amino}piperidin-1-yl)benzonitrile]
3 | 0.01 to 1 µM | > 10 µM | 0.01 to 1 µM | – | – | Cc1cc(C)c(C(=O)N2CCN(c3ccccc3C#N)[C@H](CO)C2)cc1NC1CCN(c2ccccc2C#N)CC1 (single isomer, unassigned) [I-79, 2-[4-({5-[(3S or 3R)-4-(2-Cyanophenyl)-3-(hydroxymethyl)piperazine-1-carbonyl]-2,4-dimethylphenyl}amino)piperidin-1-yl]benzonitrile]
4 | 0.01 to 1 µM | > 10 µM | 0.01 to 1 µM | – | – | Cc1cc(C)c(C(=O)N2CCN(c3cccc(F)c3[S@@](C)(=N)=O)CC2)cc1NC1CCN(c2ccccc2C#N)CC1 (single isomer, unassigned) [I-88]
5 | – | – | 0.01 to 1 µM | – | > 10 µM | Cc1cc(C)c(C(=O)N2CCN(c3cccnc3[S@](C)(=N)=O)CC2)c(C)c1NC1CCN(c2ncccc2Cl)CC1 (stereo in doubt) [I-176, (3-(4-(3-((1-(3-chloropyridin-2-yl)piperidin-4-yl)amino)-2,4,6-trimethylbenzoyl)piperazin-1-yl)pyridin-2-yl)(imino)(methyl)-16-sulfanone Trifluoroacetate Salt]
6 | 0.01 to 1 µM | > 10 µM | 0.01 to 1 µM | – | – | Cc1cc(C)c(N(CCO)C2CCN(c3ccccc3C#N)CC2)cc1C(=O)N1CCN(c2ccccc2S(N)(=O)=O)CC1 [I-1, 2-(4-(5-((1-(2-Cyanophenyl)piperidin-4-yl)(2-hydroxyethyl)amino)-2,4-dimethylbenzoyl)piperazin-1-yl)benzenesulfonamide]
7 | 0.01 to 1 µM | > 10 µM | 0.01 to 1 µM | – | – | Cc1cc(C)c(C(=O)N2CCN(c3cccnc3S(N)(=O)=O)CC2)c(C)c1NC1CCN(c2ccccc2C#N)CC1 [I-2, 3-(4-(3-(1-(2-Cyanophenyl)piperidin-4-ylamino)-2,4,6-trimethylbenzoyl)piperazin-1-yl)pyridine-2-sulfonamide]
8 | 0.01 to 1 µM | > 10 µM | 0.01 to 1 µM | – | – | Cc1cc(C)c(C(=O)N2CCN(c3cccnc3S(N)(=O)=O)CC2)cc1NC1CCN(c2ccccc2C#N)CC1 [I-3, 3-(4-(5-(1-(2-Cyanophenyl)piperidin-4-ylamino)-2,4-dimethylbenzoyl)piperazin-1-yl)pyridine-2-sulfonamide]
9 | 1 to 3 µM | > 10 µM | > 10 µM | – | – | Cc1cc(C)c(C(=O)N2CCN(c3cccc(S(N)(=O)=O)c3)CC2)cc1NC1CCN(c2ccccc2Cl)CC1 [I-4, 3-(4-(5-(1-(2-Chlorophenyl)piperidin-4-ylamino)-2,4-dimethylbenzoyl)piperazin-1-yl)benzenesulfonamide]
10 | > 10 µM | > 10 µM | > 10 µM | – | – | Cc1cc(C)c(C(=O)N2CCN[C@@H](CO)C2)cc1NC1CCN(c2ccccc2C#N)CC1 [I-6, (R)-2-(4-(5-(3-(Hydroxymethyl)piperazine-1-carbonyl)-2,4-dimethylphenylamino)piperidin-1-yl)benzonitrile]
11 | 0.01 to 1 µM | > 10 µM | – | – | – | Cc1cc(C)c(C(=O)N2CCN(c3ncccc3S(N)(=O)=O)CC2)c(C)c1N[C@H]1CCN(c2ccccc2C#N)C[C@@H]1C [I-181, 2-(4-(3-(((3S,4S)-1-(2-cyanophenyl)-3-methylpiperidin-4-yl)amino)-2,4,6-trimethylbenzoyl)piperazin-1-yl)pyridine-3-sulfonamide]
12 | 0.01 to 1 µM | > 10 µM | – | – | – | Cc1cc(C)c(C(=O)N2CCN(c3ccccn3)[C@H](CO)C2)cc1NC1CCN(c2ccccc2OC(F)(F)F)CC1 [I-183, (S)-(2,4-dimethyl-5-(1-(2-(trifluoromethoxy)phenyl)piperidin-4-ylamino)phenyl)(3-(hydroxymethyl)-4-(pyridin-2-yl)piperazin-1-yl)methanone]
13 | 0.01 to 1 µM | > 10 µM | – | – | – | Cc1cc(C)c(C(=O)N2CCN(c3ccccn3)[C@H](CO)C2)cc1NC1CCN(c2ccccc2OC(F)F)CC1 [I-184, (S)-(5-(1-(2-(difluoromethoxy)phenyl)piperidin-4-ylamino)-2,4-dimethylphenyl)(3-(hydroxymethyl)-4-(pyridin-2-yl)piperazin-1-yl)methanone]
14 | 0.01 to 1 µM | > 10 µM | – | – | – | Cc1cc(C)c(C(=O)N2CCN(c3cccnc3S(N)(=O)=O)CC2)c(C)c1NC1CCN(c2ncccc2Cl)CC1 [I-185, 3-(4-(3-(1-(3-chloropyridin-2-yl)piperidin-4-ylamino)-2,4,6-trimethylbenzoyl)piperazin-1-yl)pyridine-2-sulfonamide]
15 | 0.01 to 1 µM | > 10 µM | – | – | – | Cc1cc(C)c(C(=O)N2CCN(c3ncccc3S(N)(=O)=O)CC2)c(C)c1NC1CCN(c2ncccc2Cl)CC1 [I-186, 2-(4-(3-(1-(3-chloropyridin-2-yl)piperidin-4-ylamino)-2,4,6-trimethylbenzoyl)piperazin-1-yl)pyridine-3-sulfonamide]
16 | > 10 µM | > 10 µM | – | – | – | Cc1cc(C)c(C(=O)N2CCN(c3cccc(F)c3S(N)(=O)=O)CC2)cc1NC1CCN(c2c(F)cc(F)cc2C#N)CC1 [I-187, 2-(4-(5-(1-(2-cyano-4,6-difluorophenyl)piperidin-4-ylamino)-2,4-dimethylbenzoyl)piperazin-1-yl)-6-fluorobenzenesulfonamide]
17 | 1 to 3 µM | > 10 µM | – | – | – | Cc1cc(C)c(C(=O)N2CCN(c3ncccc3S(N)(=O)=O)C[C@@H]2C)c(C)c1NC1CCN(c2ccccc2C#N)CC1 [I-188, (S)-2-(4-(3-(1-(2-cyanophenyl)piperidin-4-ylamino)-2,4,6-trimethylbenzoyl)-3-methylpiperazin-1-yl)pyridine-3-sulfonamide]
18 | 0.01 to 1 µM | > 10 µM | – | – | – | Cc1cc(C)c(C(=O)N2CCN(c3cccc(F)c3[S@@](C)(=N)=O)C[C@@H]2C)c(C)c1NC1CCN(c2ccccc2C#N)CC1 [I-189, 2-(4-(3-((S)-4-(3-fluoro-2-((S)-S-methylsulfonimidoyl)phenyl)-2-methylpiperazine-1-carbonyl)-2,4,6-trimethylphenylamino)piperidin-1-yl)benzonitrile]
19 | 0.01 to 1 µM | > 10 µM | – | – | – | Cc1cc(C)c(C(=O)N2CCN(c3cccc(F)c3[S@](C)(=N)=O)C[C@@H]2C)c(C)c1NC1CCN(c2ccccc2C#N)CC1 [I-190, 2-(4-(3-((S)-4-(3-fluoro-2-((R)-S-methylsulfonimidoyl)phenyl)-2-methylpiperazine-1-carbonyl)-2,4,6-trimethylphenylamino)piperidin-1-yl)benzonitrile]
20 | – | – | 0.01 to 1 µM | – | – | Cc1cc(C)c(C(=O)N2CCN(c3cccc(F)c3[S@](C)(=N)=O)C[C@@H]2C)c(C)c1NC1CCN(c2ccccc2C#N)CC1 [I-192, 2-(4-(3-((2S)-4-(3-fluoro-2-(S-methylsulfonimidoyl)phenyl)-2-methylpiperazine-1-carbonyl)-2,4,6-trimethylphenylamino)piperidin-1-yl)benzonitrile]
21 | 1 to 3 µM | > 10 µM | – | – | – | Cc1cc(C)c(C(=O)N2CCN(c3ncccc3S(N)(=O)=O)C[C@@H]2C)c(C)c1NC1CCN(c2ccc(F)cc2C#N)CC1 [I-193, (S)-2-(4-(3-(1-(2-cyano-4-fluorophenyl)piperidin-4-ylamino)-2,4,6-trimethylbenzoyl)-3-methylpiperazin-1-yl)pyridine-3-sulfonamide]
